# Earlier results in publication PMC10930872, “Preparation, Structural Identification, and Screening of Egg-Derived Peptides with Facilitating Alcohol Metabolism Activity” (Foods, 2024).
# Columns and labels:
# ethanol dehydrogenase = test system: ethanol dehydrogenase; design: method as in doi:10.1016/j.lwt.2022.113376; conditions: ref [36]
# hepatic ADH = conditions: ref [42],[43]
# Description: This has to do with the fact that eggs contain all EAAs. […] Ala is involved in hepatic gluconeogenesis, which oxidizes NADH + H^+ to NAD^+, thereby maintaining cytoplasmic NAD^+ concentrations and promoting alcohol metabolism. […] It is reported that HAA (Tyr, Trp, Gl ...
# [1] = target: T1, alcohol dehydrogenase (ADH) (Saccharomyces cerevisiae, UniProt P00330); conditions: pentapeptide screened by Zan et al., 2023; ref [59]; read-out: EC50 of ADH activation
# T1 sequence (P00330 1-348): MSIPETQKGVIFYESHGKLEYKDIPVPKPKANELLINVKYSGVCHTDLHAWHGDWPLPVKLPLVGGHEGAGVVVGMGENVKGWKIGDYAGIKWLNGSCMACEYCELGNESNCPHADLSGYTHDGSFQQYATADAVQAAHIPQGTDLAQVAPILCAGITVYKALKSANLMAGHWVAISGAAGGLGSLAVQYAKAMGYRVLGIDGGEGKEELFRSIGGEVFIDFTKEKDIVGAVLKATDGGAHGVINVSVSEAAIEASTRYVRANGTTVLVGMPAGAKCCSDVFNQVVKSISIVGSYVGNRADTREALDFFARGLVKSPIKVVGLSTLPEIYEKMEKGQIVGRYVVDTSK
# Description: GSH, a tripeptide composed of Glu, Cys, and Gly, is widely found in normal human cells, with the highest concentration in the liver. It plays an important role in scavenging free radicals, inhibiting inflammatory factors, relieving hangovers, and protecting the liver.
compound,measurement,setting,value
"Lys-Pro-Cys [KPC, chicken-derived tripeptide]",Stability of ethanol dehydrogenase,ethanol dehydrogenase,enhanced the stability of ethanol dehydrogenase
"CC(C)C[C@H](N)C(=O)O [Leu, L-leucine]",Hepatic ADH activity,hepatic ADH,significantly increase hepatic ADH activity
"ILPHF [pentapeptide screened by Zan et al., 2023]",EC50,[1],1.6 µM
